Results reported in the NIST ThermoML archive (doi:10.1021/acs.jced.8b00554).
Numbers after ± are expanded uncertainties.

Experiment: xn = mol fraction of the nth substance listed
Conditions: 363.15 K, Liquid, Vibrating tube method

CCCCCCCCCC [decane] + CCCO
Conditions | mass density [kg/m3]
5010 kPa, x2 = 0.1907 | 670.1 ± 4.3
5010 kPa, x2 = 0.8711 | 711.06 ± 4.5
5020 kPa, x2 = 0.1391 | 670.64 ± 4.3
5020 kPa, x2 = 0.3001 | 671.07 ± 4.3
5020 kPa, x2 = 0.6863 | 687.44 ± 4.4
6010 kPa, x2 = 0.3001 | 672.31 ± 4.3
6010 kPa, x2 = 0.8711 | 712.33 ± 4.6
6020 kPa, x2 = 0.1391 | 671.83 ± 4.3
6020 kPa, x2 = 0.1907 | 671.28 ± 4.3
6020 kPa, x2 = 0.4326 | 673.61 ± 4.3
6020 kPa, x2 = 0.6863 | 688.73 ± 4.4
7010 kPa, x2 = 0.1907 | 672.49 ± 4.3
7010 kPa, x2 = 0.6863 | 690.06 ± 4.4
7020 kPa, x2 = 0.1391 | 673.03 ± 4.3
7020 kPa, x2 = 0.3001 | 673.57 ± 4.3
7020 kPa, x2 = 0.4326 | 674.92 ± 4.3
7020 kPa, x2 = 0.8711 | 713.62 ± 4.6
8000 kPa, x2 = 0.3001 | 674.82 ± 4.3
8000 kPa, x2 = 0.4326 | 676.22 ± 4.3
8000 kPa, x2 = 0.6863 | 691.39 ± 4.4
8010 kPa, x2 = 0.1907 | 673.78 ± 4.3
8020 kPa, x2 = 0.1391 | 674.3 ± 4.3
8020 kPa, x2 = 0.8711 | 714.86 ± 4.6
9000 kPa, x2 = 0.1391 | 675.46 ± 4.3
9000 kPa, x2 = 0.3001 | 676.11 ± 4.3
9000 kPa, x2 = 0.6863 | 692.72 ± 4.4
9010 kPa, x2 = 0.1907 | 675 ± 4.3
9010 kPa, x2 = 0.4326 | 677.52 ± 4.3
9020 kPa, x2 = 0.8711 | 716.13 ± 4.6
10000 kPa, x2 = 0.1391 | 676.67 ± 4.3
10000 kPa, x2 = 0.1907 | 676.19 ± 4.3
10010 kPa, x2 = 0.3001 | 677.41 ± 4.3
10010 kPa, x2 = 0.6863 | 694.02 ± 4.5
10010 kPa, x2 = 0.8711 | 717.4 ± 4.6
10020 kPa, x2 = 0.4326 | 678.87 ± 4.3
11000 kPa, x2 = 0.1391 | 677.93 ± 4.3
11010 kPa, x2 = 0.3001 | 678.66 ± 4.3
11010 kPa, x2 = 0.6863 | 695.33 ± 4.5
11020 kPa, x2 = 0.1907 | 677.43 ± 4.3
11020 kPa, x2 = 0.4326 | 680.14 ± 4.4
11020 kPa, x2 = 0.8711 | 718.66 ± 4.6
12000 kPa, x2 = 0.1391 | 679.09 ± 4.4
12000 kPa, x2 = 0.1907 | 678.73 ± 4.3
12000 kPa, x2 = 0.3001 | 679.92 ± 4.4
12010 kPa, x2 = 0.4326 | 681.46 ± 4.4
12010 kPa, x2 = 0.6863 | 696.59 ± 4.5
12010 kPa, x2 = 0.8711 | 719.87 ± 4.6
13010 kPa, x2 = 0.1391 | 680.3 ± 4.4
13010 kPa, x2 = 0.1907 | 679.91 ± 4.4
13010 kPa, x2 = 0.3001 | 681.16 ± 4.4
13010 kPa, x2 = 0.4326 | 682.71 ± 4.4
13010 kPa, x2 = 0.6863 | 697.91 ± 4.5
13020 kPa, x2 = 0.8711 | 721.04 ± 4.6
14000 kPa, x2 = 0.1907 | 681.11 ± 4.4
14000 kPa, x2 = 0.4326 | 683.94 ± 4.4
14010 kPa, x2 = 0.1391 | 681.47 ± 4.4
14010 kPa, x2 = 0.3001 | 682.38 ± 4.4
14020 kPa, x2 = 0.6863 | 699.14 ± 4.5
14020 kPa, x2 = 0.8711 | 722.27 ± 4.6
15000 kPa, x2 = 0.1907 | 682.24 ± 4.4
15000 kPa, x2 = 0.4326 | 685.14 ± 4.4
15000 kPa, x2 = 0.6863 | 700.32 ± 4.5
15010 kPa, x2 = 0.3001 | 683.55 ± 4.4
15010 kPa, x2 = 0.8711 | 723.44 ± 4.6
15020 kPa, x2 = 0.1391 | 682.58 ± 4.4
16000 kPa, x2 = 0.3001 | 684.7 ± 4.4
16000 kPa, x2 = 0.4326 | 686.33 ± 4.4
16010 kPa, x2 = 0.1391 | 683.66 ± 4.4
16010 kPa, x2 = 0.1907 | 683.38 ± 4.4
16010 kPa, x2 = 0.8711 | 724.56 ± 4.7
16020 kPa, x2 = 0.6863 | 701.55 ± 4.5
17000 kPa, x2 = 0.3001 | 685.86 ± 4.4
17010 kPa, x2 = 0.1391 | 684.77 ± 4.4
17010 kPa, x2 = 0.1907 | 684.57 ± 4.4
17010 kPa, x2 = 0.4326 | 687.43 ± 4.4
17020 kPa, x2 = 0.6863 | 702.7 ± 4.5
17020 kPa, x2 = 0.8711 | 725.68 ± 4.7
18000 kPa, x2 = 0.1391 | 685.82 ± 4.4
18000 kPa, x2 = 0.1907 | 685.6 ± 4.4
18000 kPa, x2 = 0.3001 | 686.93 ± 4.4
18010 kPa, x2 = 0.6863 | 703.81 ± 4.5
18010 kPa, x2 = 0.8711 | 726.78 ± 4.7
18020 kPa, x2 = 0.4326 | 688.58 ± 4.4
19000 kPa, x2 = 0.1391 | 686.79 ± 4.4
19000 kPa, x2 = 0.4326 | 689.63 ± 4.4
19000 kPa, x2 = 0.8711 | 727.82 ± 4.7
19010 kPa, x2 = 0.1907 | 686.57 ± 4.4
19010 kPa, x2 = 0.3001 | 687.98 ± 4.4
19020 kPa, x2 = 0.6863 | 704.89 ± 4.5
20000 kPa, x2 = 0.3001 | 688.93 ± 4.4
20000 kPa, x2 = 0.8711 | 728.82 ± 4.7
20010 kPa, x2 = 0.1391 | 687.72 ± 4.4
20010 kPa, x2 = 0.1907 | 687.53 ± 4.4
20010 kPa, x2 = 0.4326 | 690.72 ± 4.4
20010 kPa, x2 = 0.6863 | 706 ± 4.5
